Laboratory results reported in patent publication US20210009551A1, “COMPOUNDS AND METHODS FOR TREATING FIBROSIS OR CANCER” (THE REGENTS OF THE UNIVERSITY OF CALIFORNIA, priority 2016, published 2021).

Key:
[1] = system: urinary DPD/PYD after bleomycin; test: Urinary PYD/DPD measurements; assay type: in vivo, mice; conditions: 100 mg/kg from day 10
Description: Urinary PYD/DPD measurements. Pooled urine from each of 3-5 mice for each time point after bleomycin in a cohort of mice treated with vehicle or corilagin (100 mg/kg) beginning on day 10 post bleomycin were collected. Urine specimens were also collected from two cohorts of IPF patients and controls at two sites: All consenting patients with physician-established diagnosis of IPF followed in the respective ILD programs were included in sample collection. PYD/DPD levels from all the samples were measured using MicroVue EIA Assay Kit (Quidel Corp., San Diego, Calif.) along with PYD/DPD standards and the results were normalized relative to urinary creatinine. The statistical significance was analyzed using Mann-Whitney U-Test.

Solubility (statement) = assay type: physicochemical
[2] = molecular target: T1, wild-type or mutant human LOXL2 (Homo sapiens, UniProt Q9Y4K0); test: LOX activity of conditioned media from NMuMG cells expressing wild-type or mutant LOXL2; assay type: cell-based; conditions: 1 μM, 6 h, K614N, K759R, all except the K731 mutant
T1 construct: Flag (C); expressed in transfected cells; host or cells: NMuMG cells, conditioned medium
T1 sequence (Q9Y4K0 26-774): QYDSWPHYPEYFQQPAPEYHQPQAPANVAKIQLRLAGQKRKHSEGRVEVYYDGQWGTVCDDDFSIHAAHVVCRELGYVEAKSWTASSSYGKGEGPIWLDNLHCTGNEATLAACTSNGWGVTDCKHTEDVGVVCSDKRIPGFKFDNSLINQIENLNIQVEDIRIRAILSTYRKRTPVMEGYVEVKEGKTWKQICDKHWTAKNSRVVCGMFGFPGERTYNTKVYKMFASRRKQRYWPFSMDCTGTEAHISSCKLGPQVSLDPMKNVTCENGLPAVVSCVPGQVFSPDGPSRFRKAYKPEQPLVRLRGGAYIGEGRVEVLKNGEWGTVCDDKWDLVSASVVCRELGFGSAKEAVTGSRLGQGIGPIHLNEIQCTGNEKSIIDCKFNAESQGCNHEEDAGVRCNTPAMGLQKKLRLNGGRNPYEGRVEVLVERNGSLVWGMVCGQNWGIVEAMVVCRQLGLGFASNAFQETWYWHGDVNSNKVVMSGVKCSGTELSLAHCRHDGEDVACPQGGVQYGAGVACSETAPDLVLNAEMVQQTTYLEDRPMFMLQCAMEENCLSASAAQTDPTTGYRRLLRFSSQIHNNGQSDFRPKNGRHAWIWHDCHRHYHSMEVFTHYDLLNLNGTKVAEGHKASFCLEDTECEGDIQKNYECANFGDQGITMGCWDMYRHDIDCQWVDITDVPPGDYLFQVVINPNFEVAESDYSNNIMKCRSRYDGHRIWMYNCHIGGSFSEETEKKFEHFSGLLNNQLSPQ
Description: LOX activity assay LOX activity of recombinant human LOXL2 or conditioned medium collected from cells expressing LOXL2 was measured using a Fluorimetric Lysyl Oxidase Activity Assay Kit (Abeam, Cambridge, Mass.) following a protocol provided by the manufacturer. Briefly, 50 μl of sample was mixed with an equal volume of assay reaction mixture containing LOX substrate, horseradish peroxidase (HRP) and HRP substrate in the presence and absence of testing inhibitors and D-penicillamine (DPA), a LOX inhibitor. The mixture was incubated for 30 min at 37° C. in darkness. The fluorescence increase was then measured with a fluorescence plate reader (BMG Lab Tech FLUOstar) at Ex/Em=540/590 nm. Sample buffer or medium alone without LOXL2 was used for determination of the background fluorescence.
Site-directed mutagenesis of LOXL2. Site-directed mutagenesis was performed to generate K614N, K731R, and K759R point mutations using Phusion Site-Directed Mutagenesis Kit (Thermo Scientific, Waltham, Mass.) according to manufacturer's instructions. A pcDNA3-hLOXL2-flag plasmid containing the cDNA fragment of wild-type human LOXL2 fused with a flag tag at the C-terminus, was used as the template DNA^18. Mutations were confirmed by DNA sequencing. […]

EGFR = test: EGF signaling through EGFR (immunoblot); assay type: cell-based; conditions: 1 μM, 6 h pre-treatment, A549 and MDA-MB-231 cells
Description: (§1) Immunoblot. Pulverized tissue and cells were lysed in RIP A buffer (150 mM NaCl, 50 mM Tris, pH 8.0, 1% Triton X-100, 0.5% sodium deoxycholate, 0.1% SDS, supplemented with protease and phosphatase inhibitors) and analyzed by immunoblotting. Densitometry was quantified using NIH Imaged software.

[3] = system: TGFβ1-induced epithelial-mesenchymal transition (EMT) in A549 adenocarcinoma cells; test: TGFβ1-induced EMT in A549 cells (image-based screen, immunoblot); assay type: cell-based
Description: High throughput screen and high content imaging analysis. A549 cell-based screening of inhibitors to TGFβ1-induced EMT from a bioactive small molecule library was performed in 384-well plate format and the images were captured and analyzed using GE IN Cell 2000 as described previously^16.
as §1

solubility (Solubility (statement)): more soluble | inhibition of LOX activity of wt and point mutant LOXL2 [2]: completely inhibited | IC50 ([3]; Homo sapiens, A549 cells stimulated with TGFβ1, 48 h): 50 nM
SMILES: O=C(O[C@@H]1O[C@@H]2COC(=O)c3cc(O)c(O)c(O)c3-c3c(cc(O)c(O)c3O)C(=O)O[C@H]([C@H]1O)[C@@H]2O)c1cc(O)c(O)c(O)c1 [corilagin, Corilagin]
increase of urinary DPD/PYD levels days 10-21 post bleomycin [1]: suppressed | EGF signaling through EGFR (EGFR): no effect | inhibitory effects on EMT after knockdown of LOXL2 ([3]; LOXL2 RNAi, A549 cells, 1 μM): completely abrogated
